± gives the expanded uncertainty stated by the source.
Key:
[1] = xn = mol fraction of the nth substance listed; conditions: Ring tensiometer
[2] = refractive index (Na D-line) (dimensionless); xn = mol fraction of the nth substance listed; conditions: 101 kPa, Liquid, Standard Abbe refractometry

CC(N)CN (stereo not given) [1,2-propanediamine] + O
Conditions	refractive index, 283.15 K	refractive index, 293.15 K	refractive index, 303.15 K	refractive index, 313.15 K	refractive index, 323.15 K	surface tension liquid-gas, 283.15 K [mN/m]	surface tension liquid-gas, 293.15 K [mN/m]	surface tension liquid-gas, 303.15 K [mN/m]	surface tension liquid-gas, 313.15 K [mN/m]	surface tension liquid-gas, 323.15 K [mN/m]
[1], x1 = 0.01	–	–	–	–	–	67.4 ± 1.1	66.1 ± 1	64.7 ± 1	62.8 ± 1	61 ± 1
[1], x1 = 0.03	–	–	–	–	–	62.1 ± 0.9	60.5 ± 0.9	58.7 ± 0.9	57.3 ± 0.8	56 ± 0.8
[1], x1 = 0.05	–	–	–	–	–	58.1 ± 0.8	56.4 ± 0.8	55 ± 0.8	53.7 ± 0.8	52.2 ± 0.7
[1], x1 = 0.07	–	–	–	–	–	55 ± 0.7	53.5 ± 0.7	51.9 ± 0.7	50.5 ± 0.7	49.1 ± 0.7
[1], x1 = 0.1	–	–	–	–	–	51.7 ± 0.7	50.5 ± 0.7	48.9 ± 0.7	47.3 ± 0.6	45.8 ± 0.6
[1], x1 = 0.2	–	–	–	–	–	47.6 ± 0.6	46.4 ± 0.6	45 ± 0.6	43.2 ± 0.6	41.9 ± 0.6
[1], x1 = 0.3	–	–	–	–	–	44.8 ± 0.6	43.7 ± 0.6	42.4 ± 0.6	41 ± 0.6	39.7 ± 0.5
[1], x1 = 0.4	–	–	–	–	–	42.5 ± 0.6	41.1 ± 0.6	40.1 ± 0.6	38.6 ± 0.5	37.4 ± 0.5
[1], x1 = 0.5	–	–	–	–	–	40.6 ± 0.6	39.2 ± 0.5	37.9 ± 0.5	36.6 ± 0.5	35.5 ± 0.5
[1], x1 = 0.6	–	–	–	–	–	38.3 ± 0.5	37.2 ± 0.5	36.1 ± 0.5	35.1 ± 0.5	33.9 ± 0.5
[1], x1 = 0.7	–	–	–	–	–	37.5 ± 0.5	36.4 ± 0.5	35.2 ± 0.5	34.1 ± 0.5	32.9 ± 0.5
[1], x1 = 0.8	–	–	–	–	–	36.2 ± 0.5	35.1 ± 0.5	33.9 ± 0.5	32.7 ± 0.5	31.7 ± 0.5
[1], x1 = 0.9	–	–	–	–	–	35.4 ± 0.5	34.2 ± 0.5	33 ± 0.5	31.9 ± 0.5	30.7 ± 0.5
[1], x1 = 1	–	–	–	–	–	35 ± 0.5	33.8 ± 0.5	32.7 ± 0.5	31.4 ± 0.5	30.3 ± 0.5
[2], x1 = 0.01	1.34 ± 0.001	1.3392 ± 0.001	1.3381 ± 0.001	1.3366 ± 0.001	1.3352 ± 0.0011	–	–	–	–	–
[2], x1 = 0.03	1.3522 ± 0.001	1.3512 ± 0.001	1.3499 ± 0.0009	1.3488 ± 0.001	1.3478 ± 0.001	–	–	–	–	–
[2], x1 = 0.05	1.3635 ± 0.0009	1.3621 ± 0.0009	1.3604 ± 0.0009	1.3592 ± 0.0008	1.3579 ± 0.0008	–	–	–	–	–
[2], x1 = 0.07	1.374 ± 0.0008	1.3723 ± 0.0008	1.3703 ± 0.0008	1.3685 ± 0.0008	1.3667 ± 0.0008	–	–	–	–	–
[2], x1 = 0.1	1.3882 ± 0.0006	1.3859 ± 0.0006	1.3835 ± 0.0006	1.3816 ± 0.0006	1.3797 ± 0.0006	–	–	–	–	–
[2], x1 = 0.2	1.4209 ± 0.0005	1.4173 ± 0.0005	1.4137 ± 0.0005	1.4111 ± 0.0005	1.4085 ± 0.0005	–	–	–	–	–
[2], x1 = 0.3	1.4356 ± 0.0004	1.4317 ± 0.0004	1.4273 ± 0.0004	1.4236 ± 0.0004	1.4208 ± 0.0004	–	–	–	–	–
[2], x1 = 0.4	1.4448 ± 0.0003	1.4405 ± 0.0003	1.4363 ± 0.0003	1.4321 ± 0.0003	1.4279 ± 0.0003	–	–	–	–	–
[2], x1 = 0.5	1.4486 ± 0.0003	1.4443 ± 0.0003	1.4401 ± 0.0003	1.4356 ± 0.0003	1.4311 ± 0.0003	–	–	–	–	–
[2], x1 = 0.6	1.4504 ± 0.0003	1.4459 ± 0.0003	1.4415 ± 0.0003	1.4369 ± 0.0003	1.4323 ± 0.0003	–	–	–	–	–
[2], x1 = 0.7	1.4511 ± 0.0003	1.4466 ± 0.0003	1.4418 ± 0.0003	1.4374 ± 0.0003	1.4325 ± 0.0003	–	–	–	–	–
[2], x1 = 0.8	1.4515 ± 0.0004	1.4468 ± 0.0004	1.442 ± 0.0004	1.4371 ± 0.0004	1.4323 ± 0.0004	–	–	–	–	–
[2], x1 = 0.9	1.4512 ± 0.0004	1.4465 ± 0.0004	1.4415 ± 0.0004	1.4368 ± 0.0004	1.4319 ± 0.0004	–	–	–	–	–
[2], x1 = 1	1.451 ± 0.0004	1.4458 ± 0.0004	1.4409 ± 0.0004	1.4362 ± 0.0004	1.4314 ± 0.0004	–	–	–	–	–

Reference: the NIST ThermoML archive (doi:10.1021/je300382a)
